In paper PMC8732799 (Journal of Natural Medicines, 2021):

Key:
[1] = parameters: method as in PMID 30974202; conditions: rats, oral extract of processed Aconite root 1 g/kg as original crude drug; cited from earlier work
CYP2C8 [2] = target: T1, CYP2C8 (Homo sapiens, UniProt P10632); experiment: Inhibition of paclitaxel metabolism in human liver microsome fraction: 6α-hydroxypaclitaxel production; conditions: human liver microsomes
T1 sequence (P10632 1-490): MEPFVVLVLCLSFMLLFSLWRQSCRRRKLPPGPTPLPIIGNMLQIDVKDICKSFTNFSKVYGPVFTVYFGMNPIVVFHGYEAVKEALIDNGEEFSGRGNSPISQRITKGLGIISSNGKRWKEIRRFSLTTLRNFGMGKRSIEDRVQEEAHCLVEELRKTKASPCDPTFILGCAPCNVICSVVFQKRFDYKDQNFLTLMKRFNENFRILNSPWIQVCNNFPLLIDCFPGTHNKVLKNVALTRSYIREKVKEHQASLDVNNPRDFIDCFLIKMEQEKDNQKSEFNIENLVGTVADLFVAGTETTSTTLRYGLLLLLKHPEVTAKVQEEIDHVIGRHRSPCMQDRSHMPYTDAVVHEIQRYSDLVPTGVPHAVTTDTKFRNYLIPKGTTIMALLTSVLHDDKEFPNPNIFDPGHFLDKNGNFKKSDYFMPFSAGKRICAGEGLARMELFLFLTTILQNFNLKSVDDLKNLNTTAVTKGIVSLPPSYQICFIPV
Experimental: (§1) Then, 10 µl of 10 mM β-NADPH (Oriental Yeast Co., Ltd., Tokyo, Japan) was added, mixed, and incubated at 37 °C for 140 min. The reaction was stopped by adding 100 µl of ethanol containing 40 µM BHB as an internal standard into the reactant and mixing vigorously. After centrifugation (15,000 × g, 7 min), 10 µl of the supernatant was analyzed using HPLC–MS/MS (Quattro Premier XE, Waters, Milford, MA, USA). The mass spectrometer used an electrospray ionization source in the positive ion mode with multiple reaction monitoring. The analytical column was an Inertsil ODS-4 (2.1 mm i.d. × 100 mm, 3 µm) (GL Sciences Inc., Tokyo, Japan). The mobile phase was delivered using a linear gradient elution system consisting of 0.5% formic acid (A): acetonitrile containing 0.5% formic acid (B), at a flow rate of 0.2 ml/min, with the following gradient profile: 40% B (0 min), increasing from 40 to 70% (0–6 min), and 70% B (6–8 min).

CYP3A4 = CYP3A4 (Homo sapiens, UniProt P08684); experiment: Inhibition of paclitaxel metabolism in human liver microsome fraction: 3'-p-hydroxypaclitaxel production; conditions: human liver microsomes
Experimental: as §1

CYP2C8 [3] = experiment: CYP2C8 mRNA expression in human cryopreserved hepatocytes (quantitative PCR); conditions: 24 h, 1, 3 and 10 µM
Experimental: (§2) Plateable and interaction-qualified cryopreserved human hepatocytes (Lonza, Walkersville, MD, USA) were thawed in a hepatocyte thawing medium (Lonza) and then seeded at 5 × 10^4 cells per well in collagen-coated 96-well plates (Corning, Corning, NY, USA) with hepatocyte plating medium (Lonza). After 1 h of incubation with 5% CO2 under saturated humidity at 37 °C, the medium was replaced with fresh plating medium. After 4 h of seeding, the media were replaced with maintenance medium (Lonza) containing Matrigel (0.3 mg/ml).
(§3) After removing the medium containing Matrigel from the cells, the cells were treated with each test compound prepared in a maintenance medium (1, 3, and 10 µM). Rifampicin, a well-known CYP2C8 and CYP3A4 inducer, was used as a positive control and treated under the same conditions. […] To obtain the samples to evaluate mRNA levels, the cells were collected 24 h after drug treatment (n = 3 per test compound). […] The concentration of DMSO in the maintenance medium was 0.1%. A cell viability assay using CellTiter-Glo (Promega, Madison, WI, USA) was used to ensure the absence of cell toxicity during treatment with each compound.
RNA isolation and cDNA synthesis were carried out using the Superprep II Cell Lysis & RT Kit (Toyobo, Osaka, Japan) according to the manufacturer’s protocol. […] Data are expressed as fold-changes to the vehicle control.

CYP2C8 [4] = experiment: Metabolic activity of paclitaxel in human cryopreserved hepatocytes: 6α-hydroxypaclitaxel production; conditions: 72 h treatment at 1–10 µM, then paclitaxel 10 µM 60 min
Experimental: as §2, §3

[5] = any concentration from 0.050 to 50 µM
[6] = human, pH 7.4, probe paclitaxel (6α-hydroxypaclitaxel formation)

Sequence of CYP3A4 (P08684 whole entry): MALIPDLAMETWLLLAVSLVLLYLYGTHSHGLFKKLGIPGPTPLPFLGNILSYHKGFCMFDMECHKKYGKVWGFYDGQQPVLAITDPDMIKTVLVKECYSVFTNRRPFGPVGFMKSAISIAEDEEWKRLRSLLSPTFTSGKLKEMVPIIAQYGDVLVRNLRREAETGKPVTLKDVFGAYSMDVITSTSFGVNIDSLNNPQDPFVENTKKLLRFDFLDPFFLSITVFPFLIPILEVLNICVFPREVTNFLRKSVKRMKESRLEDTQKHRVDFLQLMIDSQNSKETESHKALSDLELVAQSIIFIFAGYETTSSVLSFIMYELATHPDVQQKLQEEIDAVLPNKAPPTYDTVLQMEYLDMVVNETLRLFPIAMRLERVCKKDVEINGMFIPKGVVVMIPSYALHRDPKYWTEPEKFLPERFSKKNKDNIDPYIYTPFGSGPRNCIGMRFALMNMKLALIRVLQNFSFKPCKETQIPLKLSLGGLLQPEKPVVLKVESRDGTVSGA

Molecule: neoline
- maximum blood concentration of neoline [1]: approximately 80 nM
- induction ratio of 6α-hydroxypaclitaxel production (CYP2C8 [2]; at 5 µM): less than 10%
- effect on production of 6α-hydroxypaclitaxel (CYP2C8 [2]; at 5.0 µM): significantly induced
- induction ratio of 3'-p-hydroxypaclitaxel production (CYP3A4; at 5 µM): less than 10%
- effect on production of 3'-p-hydroxypaclitaxel (CYP3A4; at 5.0 µM): significantly induced
- effect on production of 3'-p-hydroxypaclitaxel (CYP3A4; at 50 µM): significantly inhibited

Molecule: C[C@@]12C[C@@]3(O)O[C@@H](O1)[C@]1(COC(=O)c4ccccc4)[C@H]3C[C@@]12O[C@@H]1O[C@H](CO)[C@@H](O)[C@H](O)[C@H]1O [paeoniflorin]
- effect on paclitaxel metabolism (6α-hydroxypaclitaxel production) (CYP2C8 [2]; [5]): did not affect
- effect on paclitaxel metabolism (3'-p-hydroxypaclitaxel production) (CYP3A4; [5]): did not affect

Molecule: CO[C@H]1/C=C/O[C@@]2(C)Oc3c(C)c(O)c4c(O)c(c(/C=N/N5CCN(C)CC5)c(O)c4c3C2=O)NC(=O)/C(C)=C\C=C\[C@H](C)[C@H](O)[C@@H](C)[C@@H](O)[C@@H](C)[C@H](OC(C)=O)[C@@H]1C [Rifampicin, rifampicin]
- effect on CYP2C8 mRNA expression (CYP2C8 [3]): significantly induced
- effect on production of 6α-hydroxypaclitaxel by human hepatocytes (CYP2C8 [4]): significantly induced

Molecule: O=c1c(O)c(-c2ccc(O)c(O)c2)oc2cc(O)cc(O)c12 [quercetin]
- activity at 140 min, 0.3 µM (CYP2C8 [2]; [6]): 49%
- activity at 140 min, 3 µM (CYP2C8 [2]; [6]): 29%

Molecule: O=C(O)C1=CO[C@@H](O[C@@H]2O[C@H](CO)[C@@H](O)[C@H](O)[C@H]2O)[C@@H]2C(CO)=CC[C@H]12 [geniposidic acid]
- effect on production of 6α-hydroxypaclitaxel (CYP2C8 [2]; at 50 µM): significantly induced
- effect on production of 3'-p-hydroxypaclitaxel (CYP3A4; at 50 µM): induced

Molecule: COC(=O)C1=CO[C@@H](O[C@@H]2O[C@H](CO)[C@@H](O)[C@H](O)[C@H]2O)[C@@H]2[C@@H](C)[C@@H](O)C[C@H]12 [loganin]
- effect on production of 6α-hydroxypaclitaxel (CYP2C8 [2]; at 50 µM): significantly induced

Molecule: OC[C@H]1O[C@@H](O[C@@H]2OC=C[C@H]3[C@H](O)[C@@H]4O[C@]4(CO)[C@@H]23)[C@H](O)[C@@H](O)[C@@H]1O [catalpol]
- effect on production of 6α-hydroxypaclitaxel (CYP2C8 [2]; at 50 µM): significantly induced
